Experimental data taken from US20090029856A1, “Hinokitiol As A Plant Pesticide” (priority 2007, published 2009).
Read-outs that look alike come from different tables or passages of the source.

Columns and labels:
[1] = Sun exposure experiment in vials, HPLC analysis of hinokitiol; type: physicochemical
Description: HPLC analysis: HPLC systems include waters 2695 separation modules with auto sampler, waters 2996 photodiode array detector, Masslynx software and Sunfire™ C18 column (5 μm, 4.6×150 mm). […] Gradient mobile phase was adopted. […] Hinokitiol complex with citric acid was monitored at 320 nm. The column temperature was kept at 30° C. during the experiment. […] The vials were put on a rack. […] After sunlight exposure, rack and vials were immediately stored at 4° C. or subsamples were taken for HPLC analysis. Visual observation was recorded before subsamples were taken. Vials were vortexed very well before subsamples were taken. Triplicates were carried out for each sample. All sun light exposure in the later studies was the same unless stated. Temperature in all this studies varied between 75 to 95° F.

[2] = system: 2-week-old cucumber plants; settings: in vivo
Description: Ethoxylated fatty esters (e.g., polyethylene 20 sorbitan monooleate, polyethylene 20 sorbitan monolaurate), ethoxylated alcohols (e.g., Genapol UD-80, UD 110, O-100 and O-200, Clariant Corporation) were chosen for phytotoxic screening in this study. […] These formulations were diluted 100 times with tap water and then sprayed on 2-week-old cucumber plants. […] Precipitation would happen to Oxylignin (sodium salt) when pH reached to 8.0 and then increased with pH.

Row | Substance | Degradation of hinokitiol (%) [1] [%] | degradation of hinokitiol in the formulation compared with other UV protection agents [1] | Degradation of hinokitiol (%) ([1]; pH 7.4) | Degradation of hinokitiol (%) ([1]; pH 8.29) | Degradation of hinokitiol (%) ([1]; pH 9.61) | phytotoxicity on 2-week-old cucumber plants ([2]; pH 10) | phytotoxicity (shown or not) [2]
1 | Humic acid | 40 ± 1 | much slower | 40 ± 3 | 30 ± 2 | 21 ± 4 | no obvious phytotoxicity | 
2 | polyethylene 20 sorbitan monooleate |  |  |  |  |  |  | did not show any obvious phytotoxicity
